Test results published in US9930890B2 (priority 2010, dated 2018).

How the values were obtained:
Plasmopara viticola = experiment: Plasmopara test (grapevine)/protective; type: in vivo; conditions: grapevine young plants, protective spray, active ingredient concentration 10 ppm, evaluation 6 days after inoculation; 0% = control, 100% = no infection
Protocol: Plasmopara Test (Grapevine)/Protective
To produce an appropriate active ingredient formulation, 1 part by weight of active ingredient is mixed with the specified amounts of solvent and emulsifier, and the concentrate is diluted with water to the desired concentration.
To test for protective efficacy, young plants are sprayed with the active ingredient formulation at the stated application rate. After the spray coating has dried on, the plants are inoculated with an aqueous spore suspension of Plasmopara viticola and then remain in an incubation cabin at approx. 20° C. and 100% relative air humidity for 1 day. Subsequently, the plants are placed in a greenhouse at approx. 21° C. and approx. 90% air humidity for 4 days. The plants are then moistened and placed in an incubation cabin for 1 day.
Evaluation follows 6 days after the inoculation. 0% means an efficacy which corresponds to that of the control, whereas an efficacy of 100% means that no infection is observed.
In this test, the following inventive compounds show, at an active ingredient concentration of 10 ppm, an efficacy of 70% or more: […]

Phytophthora infestans = type: in vivo; conditions: tomato plants, protective spray, active ingredient concentration 100 ppm, evaluation 7 days after inoculation; 0% = control, 100% = no infection
[1] = for logp [a]: pH 2.7; for logp [b]: pH 7.8

Compound | Eff. % (Plasmopara viticola) [%] | Eff. % (Phytophthora infestans) [%] | logp [a] [1] | logp [b] [1]
O=C(Oc1ccccc1C1CC(c2csc(C3CCN(C(=O)Cn4nc(C(F)F)cc4C(F)F)CC3)n2)=NO1)c1cccc(F)c1 (stereo not shown) [I-129] | 98 | 98 | 3.76[a], | 3.7[b]
O=C(Cn1nc(C(F)F)cc1C(F)F)N1CCC(c2nc(C3=NOC(c4cccc(OS(=O)(=O)C5CC5)c4)C3)cs2)CC1 (stereo not shown) [I-83] | 94 | 98 | 3.17[a], | 3.07[b]
O=C(Cn1nc(C(F)F)cc1C(F)F)N1CCC(c2nc(C3=NOC(c4ccccc4OS(=O)(=O)C4CC4)C3)cs2)CC1 (stereo not shown) [I-64] | 100 | 100 | 3.24[a], | 3.32[b]
Cc1cc(C(F)(F)F)nn1CC(=O)N1CCC(c2nc(C3=NOC(c4c(Cl)cccc4OS(C)(=O)=O)C3)cs2)CC1 (stereo not shown) [I-103] | 100 | 80 | 3.28[a], | 3.2[b]
Cc1ccc(Cl)cc1NC(=O)N1CCC(c2nc(C3=NOC(c4cccc(C=NO)c4)C3)cs2)CC1 (mixture of isomers) [I-14] | 100 | 100 | – | –
CC(=NO)c1cccc(C2CC(c3csc(C4CCN(C(=O)Cn5nc(C(F)F)cc5C(F)F)CC4)n3)=NO2)c1 (mixture of isomers) [I-18] | 100 | 100 | – | –
N#CCOc1cccc(Cl)c1C1CC(c2csc(C3CCN(C(=O)Cn4nc(C(F)F)cc4C(F)F)CC3)n2)=NO1 (stereo not shown) [I-75] | 100 | – | 3.19[a], | 3.11[b]
CC(=O)Nc1ccc(C2CC(c3csc(C4CCN(C(=O)Cn5nc(C(F)F)cc5C(F)F)CC4)n3)=NO2)cc1 (racemic) [I-25] | 97 | – | 2.2[a], | –
CON=C(C)c1ccccc1C1CC(c2csc(C3CCN(C(=O)Cn4nc(C(F)(F)F)cc4C)CC3)n2)=NO1 (mixture of isomers) [I-31] | 97 | 100 | – | –
Cc1cc(C(F)(F)F)nn1CC(=O)N1CCC(c2nc(C3=NOC(c4cccc(C=NO)c4)C3)cs2)CC1 (mixture of isomers) [I-10] | 92 | 100 | – | –
CON=C(C)c1cccc(C2CC(c3csc(C4CCN(C(=O)Nc5cc(Cl)ccc5C)CC4)n3)=NO2)c1 (mixture of isomers) [I-23] | 98 | 100 | – | –
CCON=C(C)c1cccc(C2CC(c3csc(C4CCN(C(=O)Cn5nc(C(F)F)cc5C(F)F)CC4)n3)=NO2)c1 (mixture of isomers) [I-5] | 87 | 100 | – | –
Cc1ccc(Cl)cc1NC(=O)N1CCC(c2nc(C3=NOC(c4ccccc4C=NO)C3)cs2)CC1 (mixture of isomers) [I-36] | 100 | 100 | – | –
CON=Cc1cccc(C2CC(c3csc(C4CCN(C(=O)Cn5nc(C(F)F)cc5C(F)F)CC4)n3)=NO2)c1 (mixture of isomers) [I-16] | 94 | – | – | –
CON=C(C)c1ccccc1C1CC(c2csc(C3CCN(C(=O)Cn4nc(C(F)F)cc4C(F)F)CC3)n2)=NO1 (mixture of isomers) [I-32] | 85 | 100 | – | –
O=C(Cn1nc(C(F)F)cc1C(F)F)N1CCC(c2nc(C3=NOC(c4cccc(C=NO)c4)C3)cs2)CC1 (mixture of isomers) [I-22] | 100 | 100 | – | –
Cc1cc(C(F)(F)F)nn1CC(=O)N1CCC(c2nc(C3=NOC(c4ccc(OS(C)(=O)=O)cc4)C3)cs2)CC1 (stereo not shown) [I-96] | – | 95 | 2.9[a], | 2.81[b]
CON=Cc1cccc(C2CC(c3csc(C4CCN(C(=O)Cn5nc(C(F)(F)F)cc5C)CC4)n3)=NO2)c1 (mixture of isomers) [I-15] | 81 | 100 | – | –

Compound | Eff. % (Plasmopara viticola) [%] | Eff. % (Phytophthora infestans) [%] | logp [a] [1] | logp [b] [1]
CCON=Cc1cccc(C2CC(c3csc(C4CCN(C(=O)Cn5nc(C(F)(F)F)cc5C)CC4)n3)=NO2)c1 (mixture of isomers) [I-11] | – | 100 | 3.8[a] | –
Cc1ccc(C)c(NC(=O)N2CCC(c3nc(C4=NOC(c5c(Cl)cccc5OS(C)(=O)=O)C4)cs3)CC2)c1 (racemic) [I-52] | – | 94 | 3.35[a], | 3.25[b]
C=CCOCc1ccccc1C1CC(c2csc(C3CCN(C(=O)Cn4nc(C(F)F)cc4C(F)F)CC3)n2)=NO1 (stereo not shown) [I-139] | – | 80 | 4.11[a] | –
COCCS(=O)(=O)Cc1ccccc1C1CC(c2csc(C3CCN(C(=O)Cn4nc(C(F)(F)F)cc4C)CC3)n2)=NO1 (racemic) [I-45] | – | 94 | 3.64[a] | –
Cc1cc(C(F)(F)F)nn1CC(=O)N1CCC(c2nc(C3=NOC(c4ccc(OS(=O)(=O)C5CC5)cc4)C3)cs2)CC1 (stereo not shown) [I-98] | – | 95 | 3.22[a], | 3.13[b]
Cc1ccc(S(=O)(=O)Oc2ccccc2C2(C)CC(c3csc(C4CCN(C(=O)Cn5nc(C(F)F)cc5C(F)F)CC4)n3)=NO2)cc1 (racemic) [I-48] | – | 94 | 4.31[a], | 4.15[b]
C=CCOCc1ccccc1C1CC(c2csc(C3CCN(C(=O)Cn4nc(C(F)F)cc4C(F)F)CC3)n2)=NO1 (stereo not shown) [I-94] | – | 100 | 3.63[a] | –
C=CC(=O)Oc1ccccc1C1CC(c2csc(C3CCN(C(=O)Cn4nc(C(F)(F)F)cc4C)CC3)n2)=NO1 (stereo not shown) [I-104] | – | 97 | 3.38[a], | 3.3[b]
CCON=Cc1ccccc1C1CC(c2csc(C3CCN(C(=O)Cn4nc(C(F)F)cc4C(F)F)CC3)n2)=NO1 (mixture of isomers) [I-27] | 99 | 100 | – | –
Cc1cc(C(F)(F)F)nn1CC(=O)N1CCC(c2nc(C3=NOC(c4cccc(F)c4OCC#N)C3)cs2)CC1 (stereo not shown) [I-111] | – | 98 | 3.22[a], | 3.13[b]
CON=Cc1cccc(C2CC(c3csc(C4CCN(C(=O)Nc5cc(Cl)ccc5C)CC4)n3)=NO2)c1 (mixture of isomers) [I-19] | 100 | 100 | – | –
O=C(Cn1nc(C(F)F)cc1C(F)F)N1CCC(c2nc(C3=NOC(c4cccc(OCC#Cc5cccc6ccccc56)c4)C3)cs2)CC1 (stereo not shown) [I-137] | – | 100 | 4.6[a], | 4.71[b]
CCNC(=O)Oc1ccccc1C1CC(c2csc(C3CCN(C(=O)Cn4nc(C(F)F)cc4C(F)F)CC3)n2)=NO1 (stereo not shown) [I-136] | – | 93 | 2.84[a], | 2.81[b]
Cc1cc(C(F)(F)F)nn1CC(=O)N1CCC(c2nc(C3=NOC(c4ccccc4NC=O)C3)cs2)CC1 (stereo not shown) [I-109] | – | 100 | 2.49[a], | 2.39[b]
N#CCOc1cc(Cl)ccc1C1CC(c2csc(C3CCN(C(=O)Cn4nc(C(F)F)cc4C(F)F)CC3)n2)=NO1 (stereo not shown) [I-71] | – | 100 | 3.23[a], | 3.22[b]
CON=C(C)c1cccc(C2CC(c3csc(C4CCN(C(=O)Cn5nc(C(F)F)cc5C(F)F)CC4)n3)=NO2)c1 (mixture of isomers) [I-21] | 100 | 100 | – | –
O=C(Cn1nc(C(F)F)cc1C(F)F)N1CCC(c2nc(C3=NOC(c4ccccc4C=NO)C3)cs2)CC1 (mixture of isomers) [I-35] | 100 | 95 | – | –
